Assay results as given in patent publication US20090203062A1, “Method For Identifying And/Or Quantifying Anti-Infective Compounds” (priority 2005, published 2009).

Legend:
[1] = test system: Klebsiella pneumoniae; test: Klebsiella pneumoniae murine pulmonary infection model; type: in vivo; conditions: 24 h post-infection, female Balb/cN mice
Method: Klebsiella pulmonary infection model was performed by intranasal instillation of 7-8 weeks old female Balb/cN with 20 μl containing […]. Compound or cefotaxime were injected intraperitoneally every 6 hours from the time of infection at the indicated doses. In vivo efficacy was assessed by measuring colony forming units (CFU) loads in the lungs at 24 h hours. Data analysis was performed using GraphPad Software Inc, San Diego, Calif., USA. Lane 1 is the initial load at time zero of the infection. Lane 2 is the load at 24 hours post-infection of mice treated with the vehicle only.

[2] = test system: Klebsiella pneumoniae; conditions: Tetrahymena pyriformis present; compared with the antibiotic activity IC50; FIG. 9
Text: Preparation of SM no glucose (SM-) and Tetrahymena Medium is as described in example 1. […] Strains description Same Klebsiella pneumoniae strain is used as in example 1. […] Preparation of Tetrahymena pyriformis (Tp): The same Tp is used as in example 1. The day of the screen, resuspend the Tp cells in SM- and distribute Tp cells in the 384 well plates. […] Liquid dispenser for medium distribution Fill the same number of test plates as above with SM- with the liquid dispenser plate filler. (To test the antibiotic activity of the compounds). […] Description of the mother plate of compounds Each mother plate containing 24 columns of compounds is composed of 4 control columns (1, 12, 13 and 24) of DMSO and 320 wells of compounds. The DMSO columns have to be arranged according to the library. […] Transfer of library compounds with the 384 pin replicator. A test plate for quantifying anti-virulence activity contains Tp solution. A test plate for quantifying antibiotic activity contains SM-. […]
Tp, Klebsiella pneumoniae, compound are prepared as described in example 2 and incubated in a matrix containing 384 wells (12×24) wells at 35° C. in humidity saturated incubator. […] Mutations or compound affecting pathogenicity could be assessed in terms of phenotype strength and potency, respectively with decreasing concentration of Tp.

C=CCSc1nnc(C)c(O)n1 [3-(allylsulfanyl)-5-hydroxy-6-methyl-1,2,4-triazine]
reduction of CFU load in the lungs ([1]; 225 mg/kg/day intraperitoneally every 6 hours): 4 Log

CO/N=C(\C(=O)N[C@@H]1C(=O)N2C(C(=O)O)=C(COC(C)=O)CS[C@H]12)c1csc(N)n1 [cefotaxime]
reduction of CFU load in the lungs ([1]; 37.5 mg/kg/day intraperitoneally every 6 hours): 4 Log

COc1cc(Cc2cnc(N)nc2N)cc(OC)c1OC [trimethoprim]
concentration at which the avirulence assay detected the antibiotic, lower than the IC50 of the antibiotic (sub-MIC effect) [2]: 2 Log
